The values that follow come from ChEMBL document CHEMBL3259536, “New 2H-chromene-3-carboxamide derivatives: design, synthesis and use as inhibitors of hMAO” (Eur J Med Chem, 2014).

For orientation: IC50 means the concentration that inhibits the measured activity by half.

The target in data set [1] is T1, Amine oxidase [flavin-containing] A (Homo sapiens, UniProt P21397).
T1 sequence (P21397 whole entry): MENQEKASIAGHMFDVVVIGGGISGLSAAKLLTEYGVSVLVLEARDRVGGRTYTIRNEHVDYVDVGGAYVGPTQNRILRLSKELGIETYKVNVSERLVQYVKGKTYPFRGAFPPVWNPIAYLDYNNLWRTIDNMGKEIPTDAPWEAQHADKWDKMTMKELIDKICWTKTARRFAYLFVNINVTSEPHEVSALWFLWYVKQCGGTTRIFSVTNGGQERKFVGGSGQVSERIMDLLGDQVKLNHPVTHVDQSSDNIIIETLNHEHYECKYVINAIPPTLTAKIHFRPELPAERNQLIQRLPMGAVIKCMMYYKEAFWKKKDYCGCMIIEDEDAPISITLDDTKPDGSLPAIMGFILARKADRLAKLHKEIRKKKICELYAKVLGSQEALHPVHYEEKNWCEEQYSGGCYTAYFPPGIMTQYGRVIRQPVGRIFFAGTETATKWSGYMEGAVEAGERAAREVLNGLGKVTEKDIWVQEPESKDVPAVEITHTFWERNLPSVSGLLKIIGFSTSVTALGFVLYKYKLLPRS
Briefly: Inhibition of human recombinant MAO-A expressed in baculovirus infected insect cell microsomes assessed as p-tyramine conversion to resorufin and H2O2 after 15 mins by fluorimetric assay.

The species named for the next data set is Homo sapiens. Briefly: Selectivity index, ratio of IC50 for human recombinant MAO-A to IC50 for human recombinant MAO-B.
In data set [2] the target is T2, Amine oxidase [flavin-containing] B (Homo sapiens, UniProt P27338).
T2 sequence (P27338 whole entry): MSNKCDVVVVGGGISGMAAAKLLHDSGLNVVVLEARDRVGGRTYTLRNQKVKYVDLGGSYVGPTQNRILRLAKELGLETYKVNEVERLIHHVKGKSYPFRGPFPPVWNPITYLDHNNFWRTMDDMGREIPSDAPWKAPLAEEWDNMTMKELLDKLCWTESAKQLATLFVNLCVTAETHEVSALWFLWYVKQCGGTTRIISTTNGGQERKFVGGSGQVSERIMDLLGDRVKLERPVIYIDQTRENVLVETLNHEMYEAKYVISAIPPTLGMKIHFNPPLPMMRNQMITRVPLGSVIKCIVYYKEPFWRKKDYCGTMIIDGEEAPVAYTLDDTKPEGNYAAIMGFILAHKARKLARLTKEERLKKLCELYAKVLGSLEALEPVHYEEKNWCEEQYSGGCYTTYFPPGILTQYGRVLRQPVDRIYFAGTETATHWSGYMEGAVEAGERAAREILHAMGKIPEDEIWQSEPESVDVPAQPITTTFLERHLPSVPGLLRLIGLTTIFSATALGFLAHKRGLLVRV
The data set can be described thus: Inhibition of human recombinant MAO-B expressed in baculovirus infected insect cell microsomes assessed as p-tyramine conversion to resorufin and H2O2 after 15 mins by fluorimetric assay.

Data set [3] deals with T2, Amine oxidase [flavin-containing] B. Briefly: Inhibition of human recombinant MAO-B expressed in baculovirus infected insect cell microsomes assessed as p-tyramine conversion to resorufin and H2O2 at 60 uM after 15 mins by fluorimetric assay. Particulars: 0.25 h; call rule not given here.
Data set [4] deals with T1, Amine oxidase [flavin-containing] A. The data set can be described thus: Inhibition of human recombinant MAO-A expressed in baculovirus infected insect cell microsomes assessed as p-tyramine conversion to resorufin and H2O2 at 60 uM after 15 mins by fluorimetric assay. Particulars: 0.25 h.

Turning to `CC(C)(C)NC(=O)c1cc2cc(Br)cc(Br)c2oc1=O`, the half-maximal inhibitory concentration (IC50) in data set [1] was found to be 31.5 µM; in data set [2], 14.7 µM. In addition, in the data set filed under Homo sapiens, the Ratio IC50 came to 2.1.

On to `CCCCCCN(CCCCCC)C(=O)c1cc2ccccc2oc1=O`, for which the IC50 came to 14.2 µM in data set [1] and 8.05 µM in data set [2]. In the data set filed under Homo sapiens, the Ratio IC50 worked out at 1.8.

For `O=C(c1cc2ccccc2oc1=O)N(c1ccccc1)c1ccccc1`, the “inhibition (INH)” value in data set [3] and in data set [4] was “Not Active” in each case.

Regarding `CCC(C)NC(=O)c1cc2cc([N+](=O)[O-])ccc2oc1=O` (centres undefined), the values for the IC50 in data set [1] and in data set [2] were 37.5 µM and 19.1 µM, respectively. Further, the Ratio IC50 in the data set filed under Homo sapiens is 1.97.

On to `Cc1ccccc1NC(=O)c1cc2cc([N+](=O)[O-])ccc2oc1=O`, for which, in the data set listed under Homo sapiens, the Ratio IC50 is 2. Besides, the half-maximal inhibitory concentration (IC50) in data set [2] was 29.4 µM. Further, in data set [4], the “inhibition (INH)” value is “Not Active”.

`Cc1ccccc1NC(=O)c1cc2cc(Br)cc(Br)c2oc1=O`: the Ratio IC50 in the data set listed under Homo sapiens worked out at 12.8. Besides, the concentration for half-maximal inhibition (IC50) in data set [2] amounted to 4.68 µM. In addition, the “inhibition (INH)” value in data set [4] is given as “Not Active”.

For the compound `O=C(NCCCN1CCOCC1)c1cc2cc(Br)cc(Br)c2oc1=O`, the values for the IC50 in data set [1] and in data set [2] were 32.4 µM and 10.6 µM, respectively. Besides, the Ratio IC50 in the data set listed under Homo sapiens worked out at 3.1.

On to `COc1ccccc1NC(=O)c1cc2ccccc2oc1=O`, for which the Ratio IC50 in the data set filed under Homo sapiens is 1.7. The IC50 in data set [2] worked out at 35.4 µM. The “inhibition (INH)” value in data set [4] is “Not Active”.

Consider `Cc1cccc(NC(=O)c2cc3cc(Br)cc(Br)c3oc2=O)c1`, for which, in the data set listed under Homo sapiens, the Ratio IC50 was found to be 2.78. Moreover, in data set [2], the concentration for half-maximal inhibition (IC50) came to 21.5 µM. Besides, in data set [4], the “inhibition (INH)” value is listed as “Not Active”.

Regarding `O=C(Nc1cccc(C(F)(F)F)c1)c1cc2ccccc2oc1=O`, in data set [4], the “inhibition (INH)” value is listed as “Not Active”.

In the case of `O=C(c1cc2cc(Br)cc(Br)c2oc1=O)N(c1ccccc1)c1ccccc1`, the “inhibition (INH)” value in data set [3] and in data set [4] was “Not Active” throughout.

On to `COc1ccccc1NC(=O)c1cc2cc(Br)cc(Br)c2oc1=O`, for which the Ratio IC50 in the data set filed under Homo sapiens is 2.97. In addition, in data set [2], the IC50 is 20.2 µM. Moreover, in data set [4], the “inhibition (INH)” value is reported as “Not Active”.

With `Cc1ccccc1NC(=O)c1cc2ccccc2oc1=O`, the Ratio IC50 in the data set listed under Homo sapiens was found to be 20.3. Moreover, the IC50 in data set [2] turned out to be 2.96 µM. The “inhibition (INH)” value in data set [4] is “Not Active”.

Turning to `O=C(Nc1cccc(C(F)(F)F)c1)c1cc2cc(Br)cc(Br)c2oc1=O`, the Ratio IC50 in the data set filed under Homo sapiens is 8.46. Besides, the half-maximal inhibitory concentration (IC50) in data set [2] was determined as 7.09 µM. For the same compound, in data set [4], the “inhibition (INH)” value is listed as “Not Active”.

For `Cc1cccc(NC(=O)c2cc3ccccc3oc2=O)c1`, in data set [4], the “inhibition (INH)” value is “Not Active”.

For `O=C(Nc1cccc(C(F)(F)F)c1)c1cc2cc([N+](=O)[O-])ccc2oc1=O`, in the data set filed under Homo sapiens, the Ratio IC50 was found to be 2.6. In addition, the IC50 in data set [2] was determined as 22.8 µM. Further, the “inhibition (INH)” value in data set [4] is “Not Active”.

For `COc1ccccc1NC(=O)c1cc2cc([N+](=O)[O-])ccc2oc1=O`, the Ratio IC50 in the data set listed under Homo sapiens was determined as 1.2. For the same compound, the IC50 in data set [2] came to 50 µM. The “inhibition (INH)” value in data set [4] is “Not Active”.

As to `O=C(NCCCN1CCOCC1)c1cc2cc([N+](=O)[O-])ccc2oc1=O`, the Ratio IC50 in the data set filed under Homo sapiens is 1.3. Further, in data set [2], the IC50 was determined as 46.1 µM. For the same compound, the “inhibition (INH)” value in data set [4] is “Not Active”.

With `Cc1cccc(NC(=O)c2cc3cc([N+](=O)[O-])ccc3oc2=O)c1`, in the data set listed under Homo sapiens, the Ratio IC50 was 1.5. In addition, in data set [2], the IC50 is 39.1 µM. Further, the “inhibition (INH)” value in data set [4] was “Not Active”.

Consider `O=C(NCCCN1CCOCC1)c1cc2ccccc2oc1=O`, for which the half-maximal inhibitory concentration (IC50) in data set [1] was 42.3 µM; in data set [2], 13.5 µM. The Ratio IC50 in the data set listed under Homo sapiens is 3.1.
